Measured values as given in ChEMBL document CHEMBL3608291, “Chemical constituents of Miliusa balansae leaves and inhibition of nitric oxide production in lipopolysaccharide-induced RAW 264.7 cells” (Bioorg Med Chem Lett, 2015).
Active and inactive are the calls of the source. The rule behind the calls is not given here.

Legend:
[1] = system: RAW264.7; test: Cytotoxicity against mouse RAW264.7 cells assessed as reduction in cell viability at 10 to 40 uM by MTT assay; assay type: cell-based; settings: raw264.7, 40 µM
[2] = system: RAW264.7; test: Anti-inflammatory activity in LPS-stimulated mouse RAW264.7 cells assessed as inhibition of nitric oxide production at 10 uM by Griess reaction based ELISA method; assay type: functional, cell-based
[3] = system: RAW264.7; test: Anti-inflammatory activity in LPS-stimulated mouse RAW264.7 cells assessed as inhibition of nitric oxide production at 20 uM by Griess reaction based ELISA method; assay type: functional
[4] = system: RAW264.7; test: Anti-inflammatory activity in LPS-stimulated mouse RAW264.7 cells assessed as inhibition of nitric oxide production at 40 uM by Griess reaction based ELISA method; assay type: functional
[5] = system: RAW264.7; test: Anti-inflammatory activity in LPS-stimulated mouse RAW264.7 cells assessed as inhibition of nitric oxide production at 10 to 40 uM by Griess reaction based ELISA method; assay type: functional

Row | SMILES | Activity [1] | inhibition [2] | inhibition [3] | inhibition at 40 µM [4] | inhibition [4] | inhibition (INH) [5] | inhibition at 20 µM [3]
1 | Oc1cc(O)c2c(c1)O[C@H](c1ccc(O)c(O)c1)[C@H](O)C2 [(-)-EPICATECHIN] | Non-toxic | Active | Active | 91.8% |  |  | 
2 | COc1cc([C@H](O)[C@@H](O)CO)ccc1O (relative stereo) | Non-toxic | inactive | inactive |  | inactive | 48.4% | 
3 | O=C1/C(=C/c2ccc(O)c(O)c2)Oc2cc(O)ccc21 [SULFURETIN] |  |  |  |  |  |  | 81.3%
4 | CC1=C2C[C@@H]3[C@@](C)(C[C@]2(O)OC1=O)[C@H](O)CC[C@@]3(C)O [CHLORAEUDOLIDE] | Non-toxic | inactive | inactive |  | inactive |  | 
5 | COc1cc([C@H](O)[C@H](CO)O[C@@H]2O[C@H](CO)[C@@H](O)[C@H](O)[C@H]2O)ccc1O | Non-toxic |  |  |  |  | 98% | 91.5%
6 | CC(C)CC(=O)c1c(O)cc(O)cc1O[C@@H]1O[C@H](CO)[C@@H](O)[C@H](O)[C@H]1O | Non-toxic | inactive | inactive |  | inactive |  | 
7 | C[C@H](CC[C@H]1[C@H](C)CC(=O)CC1(C)C)O[C@@H]1O[C@H](CO)[C@@H](O)[C@H](O)[C@H]1O | Non-toxic | inactive | inactive |  | inactive |  | 
8 | CC(=O)/C=C/[C@@]12O[C@@H](C[C@]1(C)O[C@@H]1O[C@H](CO)[C@@H](O)[C@H](O)[C@H]1O)[C@H](O)C2(C)C | Non-toxic |  |  |  |  |  | 98.5%
9 | CC1=C2C[C@@H]3[C@@](C)(C[C@]2(O)OC1=O)[C@H](O)CC[C@]3(C)O | Non-toxic | inactive | inactive |  | inactive |  | 
10 | CC(=O)/C=C/[C@@]12O[C@@H](C[C@]1(C)O[C@@H]1O[C@H](CO[C@@H]3OC[C@](O)(CO)[C@H]3O)[C@@H](O)[C@H](O)[C@H]1O)[C@H](O)C2(C)C | Non-toxic |  |  |  |  |  | 90.9%
11 | C[C@@H]1O[C@@H](OC[C@H]2O[C@@H](Oc3c(-c4ccc(O)c(O)c4)oc4cc(O)cc(O)c4c3=O)[C@H](O)[C@@H](O)[C@@H]2O)[C@H](O)[C@H](O)[C@H]1O [RUTIN] | Non-toxic | inactive | inactive |  | inactive |  | 
12 | COc1cc(-c2oc3cc(OC)c(O)c(O)c3c(=O)c2OC)ccc1O [CHRYSOSPLENOL C] | Non-toxic | inactive | inactive |  | inactive |  | 
13 | C[C@H](CC[C@H]1[C@H](C)C[C@H](O)CC1(C)C)O[C@@H]1O[C@H](CO)[C@@H](O)[C@H](O)[C@H]1O | Non-toxic | Active | Active | 82% |  |  | 
14 | C[C@H](/C=C/[C@@]1(O)[C@H](C)CC(=O)CC1(C)C)O[C@@H]1O[C@H](CO)[C@@H](O)[C@H](O)[C@H]1O | Non-toxic | inactive | inactive |  | inactive |  | 
15 | CC(=O)/C=C/[C@@]12O[C@@H](CC1(C)C)C[C@@]2(C)O[C@@H]1O[C@H](CO)[C@@H](O)[C@H](O)[C@H]1O | Non-toxic |  |  |  |  |  | 84.8%
16 | CC/C=C\CCO[C@@H]1O[C@H](CO)[C@@H](O)[C@H](O)[C@H]1O | Non-toxic |  |  |  |  |  | 91.8%
17 | COc1cc([C@H](O)[C@H](O)CO)cc(OC)c1O (relative stereo) | Non-toxic | inactive | inactive |  | inactive |  | 
18 | COc1cc([C@H](O)[C@@H](O)CO)cc(OC)c1O (relative stereo) | Non-toxic | inactive | inactive |  | inactive |  | 
19 | COc1cc([C@H](O)[C@H](O)CO)ccc1O (relative stereo) | Non-toxic | inactive | inactive |  | inactive | 48.4% | 
